The inhibition is the share of the control response that was lost under treatment.

The text below walks through data of patent US20210171503A1, “GLYCOLATE OXIDASE INHIBITORS AND USE THEREOF” (ORFAN BIOTECH INC., priority 2017, published 2021).

Where a name gives a salt, the structure may show the parent alone. Some results are limits rather than exact numbers.

This experiment has as its target T1, mouse glycolate oxidase (mGO) (Mus musculus, UniProt Q9WU19).
T1 construct: His6 (N); made in house; host or cells: E. coli BL21 (DE3)
T1 sequence (Q9WU19 1-370): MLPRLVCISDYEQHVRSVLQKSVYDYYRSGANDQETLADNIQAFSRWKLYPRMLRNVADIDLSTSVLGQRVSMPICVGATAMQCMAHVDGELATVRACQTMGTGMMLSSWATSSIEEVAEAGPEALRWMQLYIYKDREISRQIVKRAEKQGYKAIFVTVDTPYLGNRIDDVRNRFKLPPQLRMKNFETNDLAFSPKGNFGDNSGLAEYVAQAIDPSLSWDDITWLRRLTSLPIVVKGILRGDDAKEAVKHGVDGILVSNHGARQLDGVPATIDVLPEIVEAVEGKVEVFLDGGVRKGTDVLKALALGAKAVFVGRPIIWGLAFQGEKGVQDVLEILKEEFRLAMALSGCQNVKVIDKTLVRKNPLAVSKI
In words: In vitro inhibition of mouse glycolate oxidase (mGO), HRP-coupled Trinder reaction. The class given is biochemical. The conditions noted are these: compound tested at 100 μM; 40 mM glycolic acid as substrate; activity calculated at 1 minute. On the procedure: Protein expression. BL21 (DE3) E. coli transformed with recombinant pET-15b expression vector containing mouse Hao1 cDNA with an N-terminal His6 tag was grown in LB medium in the presence of 0.1 mg/mL ampicillin. For purification of recombinant mGO expressed in BL21 E. coli, bacteria pellets were thawed and re-suspended in 2 mL lysis buffer (50 mM NaH2PO4, 300 mM NaCl, 10 mM imidazole, 50 μM flavin mononucleotide (FMN), pH 7.5), and then treated for 30 minutes with 1 mM phenylmethylsulfonyl fluoride (PMSF) for protease inhibition, 0.1% Triton X-100 and 0.2 mg/mL lysozyme to break cellular membranes. After sonication, cells were centrifuged and the supernatant containing the total cellular extract (pre-column fraction) was loaded into a Ni-NTA agarose column, and incubated for 30 minutes at 4° C. to allow binding. The column was washed with two bed volumes of lysis buffer with 20 mM imidazole to eliminate unbound proteins (wash fraction). mGO was eluted using the same buffer containing 300 mM imidazole. Fractions containing purified GO were dialyzed against 300 mL of dialysis buffer (50 mM NaH2PO4, 300 mM NaCl, pH 7.5) at 4° C. with agitation overnight, and then kept at 4° C. in darkness. Protein was quantified by the bicinchoninic acid (BCA) assay.
Inhibition assays. Enzymatic activity of mGO was determined in the presence of glycolate as substrate (40 mM glycolic acid) and phosphate buffer (50 mM KPO4, 0.1 mM EDTA, pH 7). The production of glyoxylate was indirectly measured by the quantification of hydrogen peroxide formed during the first oxidation reaction. This hydrogen peroxide reacted with 4.9 mM 4-aminoantipyrine and 0.1 mM sulphonated […] in a coupled horseradish peroxidase (HRP) reaction that yields a quinoneimine dye (FIG. 1) measured at 515 nm (Trinder reaction). Enzymatic activity was calculated at 1 minute after initiation of the Trinder reaction.
In the case of `N#Cc1ccc(-c2cccc(Nc3ccnnc3C(=O)O)c2)cc1` [Compound 48, sodium salt, 4-((4′-Cyano-[1,1′-biphenyl]-3-yl)amino)pyridazine-3-carboxylic Acid], the inhibition at 100 µM is 30 to 60%. The figure for `COc1ccc(CNc2ccnnc2C(=O)O)c(OC)c1` [Compound 49, 4-((2,4-Dimethoxybenzyl)amino)pyridazine-3-carboxylic Acid Na Salt] is 30 to 60%; for `O=C(O)c1nnccc1NCc1ccc(F)cc1` [Compound 50, sodium salt, 4-((4-Fluorobenzyl)amino)pyridazine-3-carboxylic Acid, sodium Salt] it is below 30%.

Consider `Cc1onc(C(=O)O)c1SCc1ccccc1` [Compound 51, 4-(Benzylthio)-5-methylisoxazole-3-carboxylic Acid], for which the inhibition at 100 µM is below 30%. The figure for `O=C(O)c1nnsc1Nc1cccc(-c2ccccn2)c1` [Compound 52, 5-((3-(pyridin-2-yl)phenyl)amino)-1,2,3-thiadiazole-4-carboxylic Acid Na Salt] is above 60%; for `Cc1onc(C(=O)O)c1Nc1ccc(Oc2ccc(C#N)cc2)cc1` [Compound 53, 4-((4-(4-cyanophenoxy)phenyl)amino)-5-methylisoxazole-3-carboxylic Acid] it is 30 to 60%; for `Cc1onc(C(=O)O)c1Nc1ccc(Cc2ccc(F)cc2)cc1` [Compound 54, 4-((4-(4-fluorobenzyl)phenyl)amino)-5-methylisoxazole-3-carboxylic Acid] it is below 30%.

For `Cc1onc(C(=O)O)c1Nc1ccc(CCc2ccc(F)cc2)cc1` [Compound 56, 4-((4-(4-fluorophenethyl)phenyl)amino)-5-methylisoxazole-3-carboxylic Acid], the inhibition at 100 µM is 30 to 60%. As for `COc1ccc(CN(c2ccc(-c3ccc(C#N)cc3)cc2)c2c(C(=O)O)n[nH]c2C)cc1` [Compound 57, 4-((4′-cyano-[1,1′-biphenyl]-4-yl)(4-methoxybenzyl)amino)-5-methyl-1H-pyrazole-3-carboxylic Acid], the figure is 30 to 60%; as for `Cc1[nH]nc(C(=O)O)c1Nc1ccc(Cc2ccc(OCCOC3CN(C(=O)OC(C)(C)C)C3)cc2)cc1` [Compound 59, 4-((4-(4-(2-((1-(tert-butoxycarbonyl)azetidin-3-yl)oxy)ethoxy)benzyl)phenyl)amino)-5-methyl-1H-pyrazole-3-carboxylic Acid], below 30%; as for `Cc1[nH]nc(C(=O)O)c1Nc1ccc(Cc2ccc(OCCOC3CNC3)cc2)cc1` [Compound 60, 4-((4-(4-(2-(azetidin-3-yloxy)ethoxy)benzyl)phenyl)amino)-5-methyl-1H-pyrazole-3-carboxylic Acid hydrochloride], below 30%. Consider `Cc1[nH]nc(C(=O)O)c1Nc1ccc(Cc2ccc(OCCC3CCN(C(=O)OC(C)(C)C)CC3)cc2)cc1` [Compound 61, 4-((4-(4-(2-(1-(tert-butoxycarbonyl)piperidin-4-yl)ethoxy)benzyl)phenyl)amino)-5-methyl-1H-pyrazole-3-carboxylic Acid], for which the inhibition at 100 µM was above 60%.

Take `Cc1[nH]nc(C(=O)O)c1Nc1ccc(Cc2ccc(OCCC3CCNCC3)cc2)cc1` [Compound 62, 5-methyl-4-((4-(4-(2-(piperidin-4-yl)ethoxy)benzyl)phenyl)amino)-1H-pyrazole-3-carboxylic Acid hydrochloride]: the inhibition at 100 µM is below 30%. As for `Cc1[nH]nc(C(=O)O)c1Nc1ccc(Cc2ccc(OCCN3CCN(C(=O)OC(C)(C)C)CC3)cc2)cc1` [Compound 63, 4-((4-(4-(2-(4-(tert-butoxycarbonyl)piperazin-1-yl)ethoxy)benzyl)phenyl)amino)-5-methyl-1H-pyrazole-3-carboxylic Acid], the figure is below 30%; as for `Cc1[nH]nc(C(=O)O)c1Nc1ccc(Cc2ccc(OCCN3CCNCC3)cc2)cc1` [Compound 64, 5-methyl-4-((4-(4-(2-(piperazin-1-yl)ethoxy)benzyl)phenyl)amino)-1H-pyrazole-3-carboxylic Acid hydrochloride], below 30%; as for `Cc1[nH]nc(C(=O)O)c1Nc1ccc(Cc2ccc(OCCCCN3CCOCC3)cc2)cc1` [Compound 65, 5-methyl-4-((4-(4-(4-morpholinobutoxy)benzyl)phenyl)amino)-1H-pyrazole-3-carboxylic Acid], below 0%.

For the compound `Cc1[nH]nc(C(=O)O)c1Nc1ccc(CCc2ccc(F)cc2)cc1` [Compound 66, 4-((4-(4-Fluorophenethyl)phenyl)amino)-3-methyl-1H-pyrazole-5-carboxylic Acid], the inhibition at 100 µM was below 30%.

With `COc1ccc(CN(c2ccc(CCc3ccc(F)cc3)cc2)c2c(C(=O)O)n[nH]c2C)cc1` [Compound 67, 4-((4-(4-Fluorophenethyl)phenyl)(4-methoxybenzyl)amino)-3-methyl-1H-pyrazole-5-carboxylic Acid], the inhibition at 100 µM is above 60%.

Consider `CC(C)(C)OC(=O)N1CC(OCCOc2ccc(Cc3ccc(Nc4ccnnc4C(=O)O)cc3)cc2)C1` [Compound 68 Na salt, 4-((4-(4-(2-((1-(tert-butoxycarbonyl)azetidin-3-yl)oxy)ethoxy)benzyl)phenyl)amino)pyridazine-3-carboxylic Acid sodium Salt], for which the inhibition at 100 µM was above 60%. Regarding `CC(C)(C)OC(=O)N1CCC(CCOc2ccc(Cc3ccc(Nc4ccnnc4C(=O)O)cc3)cc2)CC1` [Compound 70, 4-((4-(4-(2-(1-(tert-Butoxycarbonyl)piperidin-4-yl)ethoxy)benzyl)phenyl)amino)pyridazine-3-carboxylic Acid], the inhibition at 100 µM was above 60%. As to `O=C(O)c1nnccc1Nc1ccc(Cc2ccc(OCCC3CCNCC3)cc2)cc1` [Compound 71, 4-((4-(4-(2-(Piperidin-4-yl)ethoxy)benzyl)phenyl)amino)-pyridazine-3-carboxylic Acid hydrochloride], the inhibition at 100 µM was 30 to 60%. The figure for `CC(C)(C)OC(=O)N1CCN(CCOc2ccc(Cc3ccc(Nc4ccnnc4C(=O)O)cc3)cc2)CC1` [Compound 72 Na salt, 4-((4-(4-(2-(4-(tert-Butoxycarbonyl)piperazin-1-yl)ethoxy)-benzyl)phenyl)amino)pyridazine-3-carboxylic Acid Sodium Salt] is above 60%; for `CCCCCC(Sc1c(C(=O)O)noc1C)c1ccc(F)cc1` (stereo not drawn) [Compound 75, 4-((1-(4-fluorophenyl)hexyl)thio)-5-methylisoxazole-3-carboxylic Acid] it is 30 to 60%; for `O=C(O)c1nnccc1SCc1ccccc1` [Compound 76, 4-(Benzylthio)pyridazine-3-carboxylic Acid] it is below 30%.

Turning to `CCCCCC(Sc1ccnnc1C(=O)O)c1ccc(F)cc1` (stereo not drawn) [Compound 77, 4-((1-(4-Fluorophenyl)hexyl)thio)pyridazine-3-carboxylic Acid], the inhibition at 100 µM is 30 to 60%.

For the compound `CCCC/C=C(/SC1=C(C(=O)O)NNC=C1)c1ccc(F)cc1` [Compound 78, (E)-4-((1-(4-Fluorophenyl)hex-1-en-1-yl)thio)-1,2-dihydropyridazine-3-carboxylic Acid], the inhibition at 100 µM is below 30%. In the case of `CCCCCC(Sc1c(C(=O)O)n[nH]c1C)c1ccc(F)cc1` (stereo not drawn) [Compound 79, 4-((1-(4-Fluorophenyl)hexyl)thio)-5-methyl-1H-pyrazole-3-carboxylic Acid], the inhibition at 100 µM is above 60%.
